Measured values as given in PMC7605558 (bioRxiv, 2020).
Where two headings read alike, the source gives them in different places.

How the values were obtained:
SARS-CoV-2 pseudovirus = assay type: cell-based
HCoV-NL63 = experiment: microbe, parasite or virus in culture; assay type: cell-based; conditions: Human coronavirus NL63, read-out: HCoV-NL63 (EC50, μM)
SARS-CoV-2 M^pro = conditions: cited from earlier work
SARS-CoV-2 = conditions: read-out: SARS-CoV-2 (EC50, μM), cellular antiviral activity; CPE assay; cited from earlier work
HCoV-OC43 M^pro [1] = target: T1, HCoV-OC43 M^pro (Human coronavirus OC43, UniProt P0C6X6); experiment: biochemical
SARS-CoV M^pro [2] = target: T2, SARS-CoV M^pro (Severe acute respiratory syndrome coronavirus, UniProt P0C6X7); assay type: binding
MERS-CoV M^pro [3] = target: T3, MERS-CoV M^pro (Middle East respiratory syndrome-related coronavirus, UniProt K9N7C7); assay type: binding
HCoV-OC43 = experiment: Combination therapy with remdesivir in HCoV-OC43 CPE assay; assay type: cell-based; conditions: combination ratios 8:1 to 1:8
SARS-CoV = experiment: microbe, parasite or virus in culture; assay type: cell-based; conditions: Severe acute respiratory syndrome coronavirus, Vero 76, 96 h, read-out: SARS-CoV (EC50, μM)
HCoV-229E [4] = experiment: microbe, parasite or virus in culture; assay type: cell-based; conditions: Human coronavirus 229E, read-out: HCoV-229E (EC50, μM)
HCoV-OC43 M^pro [5] = target: T1, HCoV-OC43 M^pro; assay type: binding
SARS-CoV M^pro [6] = target: T2, SARS-CoV M^pro; experiment: biochemical
MERS-CoV M^pro [7] = target: T3, MERS-CoV M^pro; experiment: biochemical
HCoV-229E [8] = conditions: read-out: EC50 against HCoV-229E; cited from earlier work
SARS-CoV M^pro [9] = target: T2, SARS-CoV M^pro; conditions: cited from earlier work

T1 sequence (P0C6X6 3247-3549 limits assumed): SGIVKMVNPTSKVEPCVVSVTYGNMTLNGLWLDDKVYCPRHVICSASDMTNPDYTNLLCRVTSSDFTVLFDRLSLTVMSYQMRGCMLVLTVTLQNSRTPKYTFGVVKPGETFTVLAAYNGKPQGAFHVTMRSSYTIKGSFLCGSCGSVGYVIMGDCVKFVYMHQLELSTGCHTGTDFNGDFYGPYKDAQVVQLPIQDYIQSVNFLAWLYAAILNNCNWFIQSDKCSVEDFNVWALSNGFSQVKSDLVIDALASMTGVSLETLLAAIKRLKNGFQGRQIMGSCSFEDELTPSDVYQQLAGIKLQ
T3 sequence (K9N7C7 3248-3553 limits assumed): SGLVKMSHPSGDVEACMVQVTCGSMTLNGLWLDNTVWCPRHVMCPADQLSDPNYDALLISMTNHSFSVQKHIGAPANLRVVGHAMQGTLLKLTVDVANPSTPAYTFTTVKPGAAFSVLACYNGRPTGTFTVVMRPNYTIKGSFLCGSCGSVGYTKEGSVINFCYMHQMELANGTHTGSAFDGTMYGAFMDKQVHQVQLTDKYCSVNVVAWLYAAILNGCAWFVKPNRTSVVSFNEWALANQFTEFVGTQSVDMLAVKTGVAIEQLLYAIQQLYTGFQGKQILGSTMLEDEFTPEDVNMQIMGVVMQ

`CCOC(=O)[C@H]1O[C@@H]1C(=O)N[C@@H](CC(C)C)C(=O)NCCC(C)C` [E-64d] showed an IC50 (SARS-CoV-2 pseudovirus; read-out: IC50 of SARS-CoV-2 pseudovirus entry) of 910 ± 100 nM.
In the case of `CC(C)(C)NC(=O)N[C@H](C(=O)N1C[C@H]2[C@@H]([C@H]1C(=O)NC(CC1CCC1)C(=O)C(N)=O)C2(C)C)C(C)(C)C` (stereo partly drawn) [boceprevir], the EC50 (HCoV-NL63) is listed as 16.9 ± 5.87 µM, the “effect on cathepsin L-mediated SARS-CoV-2 pseudovirus entry” value (SARS-CoV-2 pseudovirus) is listed as “no effect” and the IC50 (SARS-CoV-2 M^pro; read-out: IC50 against SARS-CoV-2 M^pro, enzymatic assay) is listed as […]. The EC50 (SARS-CoV-2) was 1.31 ± 0.58 µM, the IC50 (HCoV-OC43 M^pro [1]) was 9000 nM and the Ki (HCoV-OC43 M^pro [1]) was 2290 nM. For the same molecule, the “SARS-CoV M^pro (ΔTm, °C)” value (SARS-CoV M^pro [2]) was 3.94 ± 0.13 °C, the “MERS-CoV M^pro (ΔTm, °C)” value (MERS-CoV M^pro [3]) was 2.46 ± 0.07 °C and the “antiviral effect in combination with remdesivir (combination indices)” value (HCoV-OC43) was “additive antiviral effect”. The EC50 (SARS-CoV) was 54.2 ± 7.76 µM, the EC50 (HCoV-229E [4]) was 14.1 ± 1.5 µM and the “HCoV-OC43 M^pro (ΔTm, °C)” value (HCoV-OC43 M^pro [5]) was 1.02 ± 0.05 °C. The IC50 (SARS-CoV M^pro [6]) was 6630 nM, the Ki (SARS-CoV M^pro [6]; KI against SARS-CoV M^pro) was 1430 nM and the IC50 (MERS-CoV M^pro [7]) was 10400 nM. It also gave a Ki (MERS-CoV M^pro [7]) of 1650 ± 120 nM.
With `CCC(CC)COC(=O)[C@H](C)N[P@](=O)(OC[C@H]1O[C@@](C#N)(c2ccc3c(N)ncnn23)[C@H](O)[C@@H]1O)Oc1ccccc1` [remdesivir] the EC50 (HCoV-NL63) was 0.63 ± 0.041 µM, the EC50 (HCoV-229E [4]) was 0.03 µM and the “HCoV-OC43 M^pro (ΔTm, °C)” value (HCoV-OC43 M^pro [5]) was 0.00 ± 0.02 °C. The “effect on HCoV-OC43 M^pro stability (Tm)” value (HCoV-OC43 M^pro [5]) was “no effect”.
In the case of `CCOC(=O)/C=C/[C@H](C[C@@H]1CCNC1=O)NC(=O)[C@@H](CC(=O)[C@@H](NC(=O)c1cc(C)on1)C(C)C)Cc1ccc(F)cc1` [rupintrivir], the EC50 (HCoV-229E [8]) is listed as 300 nM, the “inhibition of SARS-CoV-2 M^pro” value (SARS-CoV-2 M^pro) is listed as “failed to inhibit” and the “inhibition of SARS-CoV M^pro” value (SARS-CoV M^pro [9]) is listed as “failed to inhibit”.
